The text below walks through data of US5891871A, “Substituted 2,3-benzodiazepin-4-ones and the use thereof” (CoCensys, Inc., priority 1997, dated 1999).

The subject of one experiment is AMPA receptor. Kind of experiment: AMPA receptor antagonism / positive modulation: AMPA induced current in Xenopus oocytes expressing rat whole brain poly(A)+ RNA (electrophysiology). The class given is cell-based. The settings on record: for IC50: oocytes expressing rat brain AMPA receptors; for AMPA positive potentiation, 200% @ μM: concentration at which AMPA current is potentiated 200%. The procedure: The novel substituted 2,3-benzodiazepin-4-ones were assessed by electrophysiological assays in Xenopus oocytes expressing rat whole brain poly(A)^+ RNA (see Keana et al, J. Med. Chem. 38. 4367-4379 (1995)) or in cultured rat cortical neurons (see Woodward et. al. Mol. Pharmacol. 47: 568-581 (1995)) for AMPA receptor activity. Compounds which are useful for treating or preventing the adverse consequences of stroke, hypoglycemia, neurodegenerative disorders, anxiety, epilepsy or psychosis, or which induce analgesia, will inhibit the currents across the membranes of the oocyte expressing AMPA receptors. However, if the compound potentiates currents across the oocyte membrane, then the compound is expected to be useful in enhancing cognition or treating schizophrenia or neurodegenerative diseases such as Parkinson's Disease.
The ability of AMPA receptor antagonists or positive modulators to inhibit or enhance AMPA induced current in oocyte expressing neuronal AMPA receptor was determined using procedures fully described in Keana et al, J. Med. Chem. 38: 4367-4379 (1995). […] The compounds of examples 22, 30 and 31 are positive modulators of AMPA receptor. They potentiate the AMPA current 200% at a concentration of 11, 10 and 11 μM, respectively.

For experiment [1] the following is noted: literature; cited from earlier work.
The conditions of experiment [2]: literature; cited from earlier work. The source holds these as a separate data set.
In another experiment the test system is mice. Kind of experiment: Maximal Electroshock-induced Seizure (MES) test. The class given is in vivo. The settings on record: for ED50: Mus musculus, mice, iv; for anticonvulsant activity in the MES experiment: in words. The procedure:
Seizures are induced by application of current (50 mA, 60 pulses/sec, […], 1 sec duration, .c.) through saline-coated corneal electrodes using a Ugo Basile ECT device (Model 7801). […] A tonic seizure is defined as a hindlimb extension in excess of 90 degrees from the plane of the body. Results are treated in a quintal manner.
A general note: Protection in the maximal electroshock model is a classic sign of anticonvulsant action.

The conditions of experiment [3]: literature; cited from earlier work. The source holds these as a separate data set.
Another experiment concerns AMPA receptors. The settings on record: literature; cited from earlier work.
For experiment [4] the following is noted: literature; cited from earlier work. The source holds these as a separate data set.
A further experiment has as its system rat. The settings on record: literature; cited from earlier work.

`CNC(=O)N1N=C(c2ccccc2)c2cc3c(cc2CC1=O)OCO3` [Example 15, 7,8-Methylenedioxy-3-methylaminocarbonyl-1-phenyl-3,5-dihydro-2,3-benzodiazepin-4(4H)-one]: the IC50 (usually the concentration that inhibits the measured activity by half) in the experiment on AMPA receptor amounted to 26 µM.
As to `CC1Cc2cc3c(cc2C(c2ccc(N)cc2)=NN1)OCO3` (centres unmarked), the central nervous effect entry in experiment [1] is given as “CNS stimulating activity”.
On to `CC1C(=O)NN=C(c2ccc3c(c2)OCO3)c2cc3c(cc21)OCO3` (centres unmarked) [Example 48, 5-Methyl-1-(3,4-methylenedioxyphenyl)-7,8-methylenedioxy-3,5-dihydro-2,3-benzodiazepin-4(4H)-one], for which the IC50 in the experiment with AMPA receptor came to 10 µM.
In the case of `O=C1Cc2cc3c(cc2C(c2ccccc2)=NN1C1CCCCC1)OCO3` [Example 31, 3-Cyclohexyl-7,8-methylenedioxy-1-phenyl-3,5-dihydro-2,3-benzodiazepin-4(4H)-one], the “AMPA positive potentiation, 200% @ μM” value with AMPA receptor was 11 µM.
In the case of `O=C(c1ccc2c(c1)OCO2)N1CCCCC1` [BDP, 1-(1,3-benzodioxol-5-ylcarbonyl) piperidine], in experiment [2], the memory enhancement result was “enhance memory”.
Turning to `Nc1ccc(C2=NNC(=O)Cc3cc4c(cc32)OCO4)c(Cl)c1` [Example 62, 1-(4-Amino-2-chlorophenyl)-7,8-methylenedioxy-3,5-dihydro-2,3-benzodiazepin-4(4H)-one], the half-maximal inhibitory concentration (IC50) with AMPA receptor was found to be 4 µM. Besides, in the experiment with mice, the 50% effective dose (ED50) (in general, the dose that gives a 50% effect, or the effect in half of the subjects) is 3.2 mg/kg and the “anticonvulsant activity in the MES experiment” value is “active as anticonvulsants”.
Regarding `Nc1ccc(C2=NNC(=O)Cc3cc4c(cc32)OCO4)cc1` [Example 14, 1-(4-Aminophenyl)-7,8-methylenedioxy-3,5-dihydro-2,3-benzodiazepin-4(4H)-one], the IC50 with AMPA receptor amounted to 3 µM. In the experiment on mice, the ED50 was determined as 2.4 mg/kg and the “anticonvulsant activity in the MES experiment” value is recorded as “active as anticonvulsants”.
Take `O=C1Cc2cc3c(cc2C(c2ccccc2)=NN1C1CCCCCC1)OCO3` [Example 30, 3-Cycloheptyl-7,8-methylenedioxy-1-phenyl-3,5-dihydro-2,3-benzodiazepin-4(4H)-one]: the “AMPA positive potentiation, 200% @ μM” value with AMPA receptor was 10 µM.
As for `Cc1ccc(C2=NNC(=O)Cc3cc4c(cc32)OCO4)cc1` [Example 9, 7,8-Methylenedioxy-1-(4-methylphenyl)-3,5-dihydro-2,3-benzodiazepin-4(4H)-one], the IC50 in the experiment with AMPA receptor was 15 µM.
On the same count and under the same terms, the figure for `Nc1ccc(C2=NNC(=O)Cc3cc4c(cc32)OCO4)cc1Cl` [Example 63, 1-(4-Amino-3-chlorophenyl)-7,8-methylendioxy-3,5-dihydro-2,3-benzodiazepin-4(4H)-one] is 0.8 µM; for `CC1C(=O)NN=C(c2ccc(N)cc2)c2cc3c(cc21)OCO3` (centres unmarked) [Example 45, 1-(4-Aminophenyl)-5-methyl-7,8-methylenedioxy-3,5-dihydro-2,3-benzodiazepin-4(4H)-one] it is 4 µM.
With `CCCC(CC)N1N=C(c2ccccc2)c2cc3c(cc2CC1=O)OCO3` (centres unmarked) [Example 33, 3-(3-Hexyl)-7,8-methylenedioxy-1-phenyl-3,5-dihydro-2,3-benzodiazepin-4(4H)-one], in the experiment on AMPA receptor, the “AMPA positive potentiation, 200% @ μM” value was determined as 24 µM.
Take `NS(=O)(=O)c1cccc2c1c([N+](=O)[O-])cc1nc(O)c(O)nc12` [NBQX, 2,3-dihydroxy-6-nitro-7-sulfamoylbenzo[f]quinoxaline]: the “prevention of global and focal ischemic damage” value in experiment [3] was “effective in preventing global and focal ischemic damage”.
Take `CC(=O)N1N=C(c2ccc(N)cc2)c2cc3c(cc2C[C@H]1C)OCO3` [LY300164]: in the experiment on AMPA receptors, the AMPA receptor antagonism result is reported as “noncompetitive antagonist of AMPA receptors”. Besides, in experiment [4], the anticonvulsant activity result is listed as “anticonvulsant activity”.
On to `CC1=NN=C(c2ccc(N)cc2)c2cc3c(cc2C1)OCO3.Cl` [GYKI 52466, 1-(4-aminophenyl)-4-methyl-7,8-methylenedioxy-5H-2,3-benzodiazepine-hydrochloride], for which, in the experiment on rat, the “neuroprotection in rat global ischemia” value was “effective neuroprotective agent”. Moreover, in experiment [4], the anticonvulsant activity entry is “effective anticonvulsant”.
For `CCCC(C)N1N=C(c2ccccc2)c2cc3c(cc2CC1=O)OCO3` (centres unmarked) [Example 25, 7,8-Methylenedioxy-3-(2-pentyl)-1-phenyl-3,5-dihydro-2,3-benzodiazepin-4(4H)-one], the “AMPA positive potentiation, 200% @ μM” value in the experiment on AMPA receptor stood at 160 µM.
As for `CCC(C)N1N=C(c2ccccc2)c2cc3c(cc2CC1=O)OCO3` (centres unmarked) [Example 21, 3-(2-Butyl)-7,8-methylenedioxy-1-phenyl-3,5-dihydro-2,3-benzodiazepin-4(4H)-one], the “AMPA positive potentiation, 200% @ μM” value with AMPA receptor was 12 µM.
The same measure, in the same setting: in the case of `CCC(CC)N1N=C(c2ccccc2)c2cc3c(cc2CC1=O)OCO3` [Example 22, 7,8-Methylenedioxy-3-(3-pentyl)-1-phenyl-3,5-dihydro-2,3-benzodiazepin-4(4H)-one] it was 11 µM; in that of `CC(C)N1N=C(c2ccccc2)c2cc3c(cc2CC1=O)OCO3` [Example 18, 3-Isopropyl-7,8-methylenedioxy-1-phenyl-3,5-dihydro-2,3-benzodiazepin-4(4H)-one], 30 µM.
For `COc1cc(C2=NNC(=O)Cc3cc4c(cc32)OCO4)ccc1[N+](=O)[O-]` [Example 56, 7,8-Methylenedioxy-1-(3-methoxy-4-nitrophenyl)-3,5-dihydro-2,3-benzodiazepin-4(4H)-one], the IC50 with AMPA receptor was 20 µM.
On to `Cc1cc(C2=NNC(=O)Cc3cc4c(cc32)OCO4)ccc1N` [Example 61, 1-(4-Amino-3-methylphenyl)-7,8-methylenedioxy-3,5-dihydro-2,3-benzodiazepin-4(4H)-one], for which the IC50 with AMPA receptor stood at 1 µM. For the same compound, in the experiment with mice, the 50% effect level (ED50) was put at a dose of 2.7 mg/kg and the “anticonvulsant activity in the MES experiment” value is recorded as “active as anticonvulsants”.
